Earlier results in patent publication US12324430B2, “Topical antiseptic system” (INFECTION CONTAINMENT COMPANY, LLC, priority 2015, dated 2025).

Row | Substance | water solubility (in words)
1 | zinc glycerate | moderately water soluble
2 | zinc picolinate | moderately water soluble
